Literature values as cited in paper PMC12729893, “Untargeted UHPLC-HRMS Metabolomic Profiling of Cornus mas L. Fruits: Impact of Conventional and Emerging Extraction Methods on Phenolic Composition and Bioactivity” (Antioxidants, 2025).

Row | Compound | α-amylase inhibition according to computational analysis (α-amylase) | α-glucosidase inhibition according to computational analysis (α-glucosidase)
1 | O=c1oc2c(O)c(O)cc3c(=O)oc4c(O)c(O)cc1c4c23 [ellagic acid] | most effective inhibitors | most effective inhibitors
2 | C[C@@H]1O[C@@H](OC[C@H]2O[C@@H](Oc3cc4c(O)cc(O)cc4[o+]c3-c3ccc(O)cc3)[C@H](O)[C@@H](O)[C@H]2O)[C@H](O)[C@H](O)[C@H]1O [pelargonidin 3-robinobioside] |  | most potent inhibitor
